One block for each compound: values may come before it.
Legend:
[1] = test system: rat striatum acetylcholine (ACh); test: effect on rat striatal acetylcholine (ACh) levels; format: in vivo; conditions: 0.5 h, ± SEM, vehicle 61.0 ± 2.33, * p < 0.05
Method: ACh concentrations were determined as described below. Each
Results were analyzed by a oneway

[2] = test system: angiotensin II receptors (AT1/AT2) of corpus luteum; test: inhibition of 125I-angiotensin II binding, corpus luteum; parameters: species or system rabbit
[3] = test system: angiotensin II receptors (AT1/AT2) of granulosa cell; conditions: 1 μM; 125I-angiotensin II; adapted from Pucell et al., Endocrinology 1991; cited from earlier work
[4] = Barnes et al., Neuroreport 1991, cited from earlier work
[5] = test system: angiotensin II induced secretion of AVP; conditions: isolated rat explants; Schiavone et al., Hypertension 1991; cited from earlier work
[6] = target: T1, AT2 receptor (rabbit uterus receptor preparations) (Oryctolagus cuniculus, UniProt G1T351); test: displacement of 3H-angiotensin II from rabbit uterus receptor preparations; format: binding; conditions: read-out: IC50 Values in Rabbit Uterine Preparations
T1 construct: cell membrane preparations derived from rabbit uterus and corpus luteum; from tissue; host or cells: rabbit uterus, cell membrane preparation
T1 sequence (G1T351 1-363): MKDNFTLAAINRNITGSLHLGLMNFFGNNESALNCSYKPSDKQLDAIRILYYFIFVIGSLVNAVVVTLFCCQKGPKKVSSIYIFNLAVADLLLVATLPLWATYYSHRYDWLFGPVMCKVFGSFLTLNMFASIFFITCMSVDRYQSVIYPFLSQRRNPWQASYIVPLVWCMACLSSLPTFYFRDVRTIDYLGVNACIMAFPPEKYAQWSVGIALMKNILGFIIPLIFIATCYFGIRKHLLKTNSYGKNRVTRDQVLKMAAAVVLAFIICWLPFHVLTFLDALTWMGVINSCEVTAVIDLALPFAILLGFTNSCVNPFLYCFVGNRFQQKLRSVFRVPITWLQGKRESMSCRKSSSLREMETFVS
Excerpt: AT2 receptors are known to exist in organs of the female reproductive system. […] More specifically, AT2 receptors are densely located on granulosa cells in atretic follicles of the ovary.

[7] = target: T2, AT2 receptor (whole rat brain) (Rattus norvegicus, UniProt P35351); test: angiotensin II receptor binding in whole rat brain (DTT protocol); conditions: whole rat brain; DTT included to eliminate AT1 binding; read-out: IC50 Values in whole Rat Brain Preparations
T2 construct: IC50 Values in whole Rat Brain Preparations; from tissue; host or cells: whole rat brain
T2 sequence (P35351 1-363): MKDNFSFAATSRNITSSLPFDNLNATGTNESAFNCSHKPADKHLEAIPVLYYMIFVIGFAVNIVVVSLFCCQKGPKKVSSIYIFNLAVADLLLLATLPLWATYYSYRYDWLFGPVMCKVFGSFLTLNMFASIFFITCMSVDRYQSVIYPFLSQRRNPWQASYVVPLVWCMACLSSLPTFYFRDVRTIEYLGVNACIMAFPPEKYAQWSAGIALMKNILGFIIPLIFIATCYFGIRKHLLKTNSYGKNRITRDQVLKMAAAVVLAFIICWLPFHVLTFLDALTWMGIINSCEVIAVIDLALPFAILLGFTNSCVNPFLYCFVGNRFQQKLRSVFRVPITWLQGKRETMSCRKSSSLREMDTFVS
Excerpt: Since receptor-specific binding in whole brain is low and is a mixture of two subtypes, an alternative protocol (Bennett and Snyder, Eur. J. Pharmacol., 67, 11-25) was used. This method includes DTT and thereby eliminates binding at AT1 receptors, thus-allowing evaluation of AT2 receptor events.

[8] = whole body autoradiography in rats; format: in vivo, rat
Method: The iodination was initiated by addition of chloramine-T (30 μg, 132 nMol) that was diluted to a concentration of 0.05 M in the same buffer as above. After shaking at room temperature for one minute the reaction was quenched with sodium metabisulfite (10 mg). […] This labeled material was reconstituted in 5% aqueous dextrose containing 30 mg/mL of the disodium salt of unlabeled Example 12 and adjusted to pH 9 by addition of several μL of 1 mM NaOH.
Male and female Sprague-Dawley rats (Charles River, Wilmington, average weight 281 g) were used in the autoradiography studies. Animals were on a fixed light cycle with unrestricted access to normal rat chow and water prior to the experiment. […] Animals were killed at 15 or 60 minutes postdose by halothane anesthesia and were rapidly frozen in acetone with dry ice. Carcasses were subsequently embedded in methylcellulose ice for whole-body sectioning and autoradiography. Autoradiograms were analyzed by computer assisted densitometry.
Results of the autoradiographical experiments are summarized in Table X. A relative scale of radioactivity is assigned with background equal to 0 and the most dense reading (liver and intestines) equal to 10. […] Another site that is highly labeled is the ovarian follicle. It is the most highly labeled non-excretory organ. All other tissues show weaker radioactivity.

[9] = test system: angiotensin II receptors (AT1 and AT2), rat brain regions; test: displacement of 125I-angiotensin II from receptor preparations of rat brain regions; format: binding; conditions: antagonist 10 μM
Method: The concentration of all three antagonist compounds in these experiments is 1 μM (above the maximal effect concentration).

[10] = 30 mg/kg i.v. rat, scale 0-10, represents excretion

SMILES: CCCCc1nc(Cl)c(CO)n1Cc1ccc(-c2ccccc2-c2nn[nH]n2)cc1 [DUP 753, reference compound]
ACh concentration, rat striatum ([1]; 30 mg/kg IP): 67.5 ± 5.71 nM/g
% Inhibition with 1 μM Antagonist, Corpus luteum ([2]; 1 μM, 125I-angiotensin II, data from Warner-Lambert Co.): 97%
displacement of 125I-angiotensin II, corpus luteum (in words) ([2]; Table IX): displaces nearly all of the radioligand
% Inhibition with 1 μM Antagonist, Granulosa cell [3]: 3%

SMILES: O=C(O)[C@@H]1Cc2c(ncn2CCC23CC4CC(CC(C4)C2)C3)CN1C(=O)C(c1ccccc1)c1ccccc1 [Example 4]
IC50 [6]: 91 nM
IC50 [7]: 180 nM

SMILES: Cc1cc(Cn2cnc3c2C[C@@H](C(=O)O)N(C(=O)C(c2ccc(F)cc2)c2ccc(F)cc2)C3)ccc1N(C)C [Example 5, (S)-(-)-5-[bis(4-fluorophenyl)acetyl)-1-[[4-(dimethylamino)-3-methyl-phenyl]methyl]-4,5,6,7-tetrahydro-1H-imidazo[4,5-c]pyridine-6-carboxylic acid]
IC50 [6]: 38 nM

SMILES: COc1ccc(Cn2cnc3c2C[C@@H](C(=O)O)N(C(=O)C2c4ccccc4-c4ccccc42)C3)cc1C [Example 6]
IC50 [6]: 1200 nM

SMILES: O=C(O)[C@@H]1Cc2c(ncn2Cc2ccccc2)CN1C(=O)C(c1ccccc1)c1ccccc1 [Example 8, (S)-(-)-5-(diphenylacetyl)-4,5,6,7-tetrahydro-1-(phenylmethyl)-1H-imidazo[4,5-c]pyridine-6-carboxylic acid]
IC50 [6]: 74 nM
IC50 [7]: 3800 nM

SMILES: COc1ccc(Cn2cnc3c2C[C@@H](C(=O)O)N(C(=O)Cc2ccccc2)C3)cc1C [Example 9, (S)-(-)-4,5,6,7-tetrahydro-1-[(4-methoxy-3-methylphenyl)methyl]-5-(phenylacetyl)-1H-imidazo-[4,5-c]pyridine-6-carboxylic acid]
IC50 [6]: 95 nM

SMILES: COc1ccc(Cn2cnc3c2C[C@@H](C(=O)O)N(C(=O)C(c2ccc(Cl)cc2)c2ccc(Cl)cc2)C3)cc1C [Example 10, (S)-(-)-5-[bis(4-chlorophenyl)acetyl]-4,5,6,7-tetrahydro-1-[(4-methoxy-3-methylphenyl)methyl]-1H-imidazo-[4,5-c]pyridine-6-carboxylic acid]
IC50 [6]: 120 nM

SMILES: CC(=O)Nc1ccc(Cn2cnc3c2C[C@@H](C(=O)O)N(C(=O)C(c2ccccc2)c2ccccc2)C3)cc1C [Example 11, (S)-(-)-[[4-(acetylamino)-3-methylphenyl]methyl]-5-(diphenylacetyl)-4,5,6,7-tetrahydro-1H-imidazo-[4,5-c]pyridine-6-carboxylic acid]
IC50 [6]: 150 nM

SMILES: O=C(O)[C@@H]1Cc2c(ncn2Cc2ccc(C(F)(F)F)cc2)CN1C(=O)C(c1ccccc1)c1ccccc1 [Example 15, (S)-(-)-5-(diphenylacetyl)-4,5,6,7-tetrahydro-1-[[4-(trifluoromethyl)-phenyl]methyl]-1H-imidazo[4,5-c]pyridine-6-carboxylic acid]
IC50 [7]: 780 nM

SMILES: O=C(CCCN1CCC(O)(c2ccc(Cl)cc2)CC1)c1ccc(F)cc1 [Haloperidol, haloperidol, reference compound]
ACh concentration, rat striatum ([1]; 2 mg/kg IP): 36.9 ± 3.27 nM/g

SMILES: CNCC(=O)N[C@@H](CCCN=C(N)N)C(=O)N[C@H](C(=O)N[C@@H](Cc1ccc(O)cc1)C(=O)N[C@H](C(=O)N[C@@H](Cc1cnc[nH]1)C(=O)N1CCC[C@H]1C(=O)N[C@@H](C)C(=O)O)C(C)C)C(C)C [SAR, saralasin, reference compound]
125I-Angiotensin II Bound, Brain Stem ([9]; rat brain stem, total 2124): 288 cpm
125I-Angiotensin II Bound, Cerebellum ([9]; rat cerebellum, total 571): 269 cpm
125I-Angiotensin II Bound, Cortex ([9]; rat cortex, total 766): 336 cpm
125I-Angiotensin II Bound, Cortical Neurons ([9]; rat cortical neurons, total 2647): 293 cpm
125I-Angiotensin II Bound, Striatal Membrane ([9]; rat striatal membrane, total 2462): 1295 cpm

Now from value to compound, other results behind:

IC50 [6]: 32 nM
SMILES: Cc1cc(Cn2cnc3c2C[C@@H](C(=O)O)N(C(=O)C(c2ccccc2)c2ccccc2)C3)ccc1N [Example 2, (S)-(-)-1-[(4-amino-3-methylphenyl)-methyl]-5-(diphenylacetyl)-4,5,6,7-tetrahydro-1H-imidazo[4,5-c]pyridine-6-carboxylic acid]
reversal of scopolamine-induced amnesia [4]: reverses scopalamine-induced amnesia
cognition enhancement ([4]; rodent behavioral models): does indeed possess cognition enhancing actions in rodent behavioral models
antagonism of angiotensin II induced AVP secretion [5]: antagonizing the angiotensin II induced secretion of AVP

IC50 [6]: 26 nM
SMILES: COc1ccc(Cn2cnc3c2C[C@@H](C(=O)O)N(C(=O)C(c2ccccc2)c2ccccc2)C3)cc1C [Example 3, (S)-(-)-5-(diphenylacetyl)-4,5,6,7-tetrahydro-1-[(4-methoxy-3-methyl-phenyl)methyl]-1H-imidazo[4,5-c]pyridine-6-carboxylic acid]

IC50 [6]: 67 nM
SMILES: Cc1cc(Cn2cnc3c2C[C@@H](C(=O)O)N(C(=O)C(c2ccccc2)c2ccccc2)C3)ccc1[N+](=O)[O-] [Example 7]

IC50 [6]: 25 nM
IC50 [7]: 570 nM
SMILES: Cc1cc(Cn2cnc3c2C[C@@H](C(=O)O)N(C(=O)C(c2ccccc2)c2ccccc2)C3)cc(I)c1O [Example 12, (S)-(-)-5-(diphenylacetyl)-1-[(4-hydroxy-3-iodo-5-methylphenyl)methyl]-4,5,6,7-tetrahydro-1H-imidazo[4,5-c]pyridine-6-carboxylic acid]
tissue distribution (in words) ([8]; rat, autoradiography): selectively distribute to the ovarian follicle

IC50 [7]: 1600 nM
SMILES: Cc1cccc(Cn2cnc3c2C[C@@H](C(=O)O)N(C(=O)C(c2ccccc2)c2ccccc2)C3)c1 [Example 16, (S)-(-)-5-(diphenylacetyl)-4,5,6,7-tetrahydro-1-[(3-methylphenyl)methyl]-1H-imidazo[4,5-c]pyridine-6-carboxylic acid]

Relative Radioactivity, Adrenal ([8]; 30 mg/kg i.v. rat, scale 0-10): 3
Relative Radioactivity, Blood ([8]; 30 mg/kg i.v. rat, scale 0-10): 4
Relative Radioactivity, Heart ([8]; 30 mg/kg i.v. rat, scale 0-10): 3
Relative Radioactivity, Kidney ([8]; 30 mg/kg i.v. rat, scale 0-10): 4-8
Relative Radioactivity, Lung ([8]; 30 mg/kg i.v. rat, scale 0-10): 4
Relative Radioactivity, Ovarian follicle ([8]; 30 mg/kg i.v. rat, scale 0-10): 9
Relative Radioactivity, Ovary (non-follicular) ([8]; 30 mg/kg i.v. rat, scale 0-10): 3-5
Relative Radioactivity, Salivary gland ([8]; 30 mg/kg i.v. rat, scale 0-10): 6-7
Relative Radioactivity, Thymus ([8]; 30 mg/kg i.v. rat, scale 0-10): 3
Relative Radioactivity, Uterus ([8]; 30 mg/kg i.v. rat, scale 0-10): 2-3
Relative Radioactivity, Bladder [8, 10]: 4-6
Relative Radioactivity, Intestines [8, 10]: 10
Relative Radioactivity, Liver [8, 10]: 10
Relative Radioactivity, Testicle ([8]; 30 mg/kg i.v. rat, scale background 0 to most dense 10): 1-2
SMILES: Cc1cc(Cn2cnc3c2C[C@@H](C(=O)O)N(C(=O)C(c2ccccc2)c2ccccc2)C3)cc([125I])c1O [^125 CI-Example 12]

— patent publication US5444069A, “Imidazo-pyridine angiotensin II antagonists used to treat memory loss” (Warner-Lambert Company, priority 1994, dated 1995)
